According to US20240116985A1, “STAPLED PEPTIDES AND METHODS THEREOF” (priority 2020, published 2024):

Columns and labels:
[1] = biological target: T1, full-length B-Catenin (Uniprot ID P35222) (Homo sapiens, UniProt P35222); experiment: Alphascreen binding assay (beta-catenin / biotin-TCF4 10-53)
T1 construct: 65 nM full-length B-Catenin (Uniprot ID P35222)
T1 sequence (P35222 1-781): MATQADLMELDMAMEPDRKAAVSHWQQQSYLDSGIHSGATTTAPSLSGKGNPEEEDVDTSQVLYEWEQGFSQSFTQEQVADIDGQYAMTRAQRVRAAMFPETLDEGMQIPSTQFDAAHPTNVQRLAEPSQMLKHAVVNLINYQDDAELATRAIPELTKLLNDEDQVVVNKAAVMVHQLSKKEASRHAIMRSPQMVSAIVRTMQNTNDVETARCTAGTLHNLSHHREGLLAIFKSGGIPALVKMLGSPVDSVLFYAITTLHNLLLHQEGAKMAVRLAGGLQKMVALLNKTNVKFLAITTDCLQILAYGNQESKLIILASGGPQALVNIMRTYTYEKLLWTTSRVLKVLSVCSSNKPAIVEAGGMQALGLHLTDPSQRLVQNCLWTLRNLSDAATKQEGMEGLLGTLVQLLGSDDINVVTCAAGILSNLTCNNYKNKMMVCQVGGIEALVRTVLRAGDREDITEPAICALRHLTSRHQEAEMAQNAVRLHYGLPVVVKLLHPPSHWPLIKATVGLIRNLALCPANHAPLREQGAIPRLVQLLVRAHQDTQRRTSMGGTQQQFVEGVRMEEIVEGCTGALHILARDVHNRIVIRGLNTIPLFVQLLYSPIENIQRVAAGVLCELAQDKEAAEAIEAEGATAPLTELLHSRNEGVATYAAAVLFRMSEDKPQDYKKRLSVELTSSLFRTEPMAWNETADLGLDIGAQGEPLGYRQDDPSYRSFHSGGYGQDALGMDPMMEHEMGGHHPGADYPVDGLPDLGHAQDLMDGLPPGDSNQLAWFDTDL
Experimental: In some embodiments, an assay is an Alphascreen binding assay. A useful protocol is described below as an example.
Alphascreen binding assay: Using the AlphaScreen Histidine (Nickel Chelate) Detection Kit (PerkinElmer), peptide solutions were prepared in buffer (50 mM Tris pH 8.0, 250 mM NaCl, 2% glycerol, 0.03% Tween-20, 0.01% TritonX-100, 0.1% BSA w/v) using a 3-fold serial dilution from 10 uM to 5 nM. Probe solution (65 nM full-length B-Catenin (Uniprot ID P35222), mixed with 10 nM biotin labeled TCF4 residues 10-53 (Uniprot ID Q9NQB0) peptide in buffer) was prepared and 4 uL per well was plated in a white polystyrene 384-well plate (Corning). Equal volume of the titrated peptide was added to the plate and incubated for 15 minutes at 20° C. Then 4 uL of donor and 4 uL acceptor beads at 10 ug/mL were added to the plate, for a 16 uL reaction pool and protected from light for 60 minutes at 20° C. prior to read. Reads were performed on a CLARIOstar plate reader (BMG Labtech) in duplicate, and data were fitted to a 1:1 binding model with hill slope using an in-house script. All provided concentrations are final concentrations.

[2] = CHI Log D procedure; type: physicochemical; conditions: for CHI Log D: pH 7.4; for chromatographic logD: pH 7.4, CHI Log D

SMILES | EC50 [1] | CHI Log D [2] | chromatographic logD [2]
CC(=O)N[C@@H](Cc1ccccc1)C(=O)N[C@@H](CC(=O)O)C(=O)N[C@@H](C)C(=O)N[C@]1(C)CCCCCCC=CCOC(=O)N2CC[C@@](C(=O)N[C@@H](CC3CCCC3)C(=O)N[C@@H](Cc3c[nH]c4ccccc34)C(=O)N[C@@H](CCC(N)=O)C(N)=O)(C2)NC(=O)[C@H](C(C)C)NC(=O)[C@H](Cc2ccccc2)NC(=O)[C@H](C)NC(=O)[C@H](C)NC(=O)[C@H](CC(=O)O)NC(=O)[C@H](CC(=O)O)NC1=O (single isomer, unassigned) [I-94, Ac-Phe-Asp-Ala-R8-Asp-Asp-Ala-Ala-Phe-Val-PyrS-CypA-Trp-Gln-NH2] | 7.01 µM | 1.409 | 
CC(=O)N[C@@H](Cc1ccccc1)C(=O)N[C@@H](CC(=O)O)C(=O)N[C@@H](C)C(=O)N[C@]1(C)CCCCCCC=CCOC(=O)N2CC[C@@](C(=O)N[C@@H](Cc3ccccc3)C(=O)N[C@@H](Cc3c[nH]c4ccccc34)C(=O)N[C@@H](CCC(N)=O)C(N)=O)(C2)NC(=O)[C@H](C(C)C)NC(=O)[C@H](Cc2ccccc2)NC(=O)[C@H](C)NC(=O)[C@H](C)NC(=O)[C@H](CCCC(=O)O)NC(=O)[C@H](CC(=O)O)NC1=O [I-6, Ac-Phe-Asp-Ala-R8-Asp-Aad-Ala-Ala-Phe-Val-PyrS-Phe-Trp-Gln-NH2] | 6.5 µM | 1.378 | 
CC(=O)N[C@@H](Cc1ccccc1)C(=O)N[C@@H](CC(=O)O)C(=O)N[C@@H](C)C(=O)N[C@]1(C)CCCC=CCOC(=O)N(C)CCC[C@@](C)(C(=O)N[C@@H](Cc2ccccc2)C(=O)N[C@@H](Cc2c[nH]c3ccccc23)C(=O)N[C@@H](CCC(N)=O)C(N)=O)NC(=O)[C@H](C(C)C)NC(=O)[C@H](Cc2ccccc2)NC(=O)[C@H](C)NC(=O)[C@H](C)NC(=O)[C@H](CC(=O)O)NC(=O)[C@H](CC(=O)O)NC1=O [I-25, Ac-Phe-Asp-Ala-R5-Asp-Asp-Ala-Ala-Phe-Val-SeN-Phe-Trp-Gln-NH2] | 7.22 µM |  | 1.17
CC(=O)N[C@@H](Cc1ccccc1)C(=O)N[C@@H](CC(=O)O)C(=O)N[C@@H](C)C(=O)N[C@]1(C)CCCCCC=CCOC(=O)N2CC[C@@](C(=O)N[C@@H](Cc3ccccc3)C(=O)N[C@@H](Cc3c[nH]c4ccccc34)C(=O)N[C@@H](CCC(N)=O)C(N)=O)(C2)NC(=O)[C@H](C(C)C)NC(=O)[C@H](Cc2ccccc2)NC(=O)[C@H](C)NC(=O)[C@H](C)NC(=O)[C@H](CC(=O)O)NC(=O)[C@H](CC(=O)O)NC1=O [I-30, Ac-Phe-Asp-Ala-R7-Asp-Asp-Ala-Ala-Phe-Val-PyrS-Phe-Trp-Gln-NH2] | 8.82 µM | 1.228 | 
CC(=O)N[C@@H](Cc1ccccc1)C(=O)N[C@@H](CC(=O)O)C(=O)N[C@@H](C)C(=O)N[C@]1(C)CCCCCC=CCOC(=O)N2CC[C@@](C(=O)N[C@@H](Cc3ccccc3)C(=O)N[C@@H](Cc3c[nH]c4ccccc34)C(=O)N[C@@H](CCC(N)=O)C(N)=O)(C2)NC(=O)[C@H](C(C)C)NC(=O)[C@H](Cc2ccccc2)NC(=O)[C@H](C)NC(=O)[C@H](C)NC(=O)[C@H](CC(=O)O)NC(=O)[C@H](CC(=O)O)NC1=O [I-31, Ac-Phe-Asp-Ala-R7-Asp-Asp-Ala-Ala-Phe-Val-PyrS-Phe-Trp-Gln-NH2] | 7.22 µM | 1.245 | 
CC(=O)N[C@@H](Cc1ccccc1)C(=O)N[C@@H](CC(=O)O)C(=O)N[C@@H](C)C(=O)NC12CN(C1)C(=O)OCC=CCCCCCC[C@@](C)(C(=O)N[C@@H](Cc1ccccc1)C(=O)N[C@@H](Cc1c[nH]c3ccccc13)C(=O)N[C@@H](CCC(N)=O)C(N)=O)NC(=O)[C@H](C(C)C)NC(=O)[C@H](Cc1ccccc1)NC(=O)[C@H](C)NC(=O)[C@H](C)NC(=O)[C@H](CC(=O)O)NC(=O)[C@H](CC(=O)O)NC2=O [I-35, Ac-Phe-Asp-Ala-Az-Asp-Asp-Ala-Ala-Phe-Val-S8-Phe-Trp-Gln-NH2] | 9.54 µM |  | 1.33
CC(=O)N1CCC[C@]12CC=CCCCC1(CCCC=CCOC(=O)N(C)CCC[C@@](C)(C(=O)N[C@@H](Cc3ccccc3)C(=O)N[C@@H](Cc3c[nH]c4ccccc34)C(=O)N[C@@H](CCC(N)=O)C(N)=O)NC(=O)[C@H](C(C)C)NC(=O)[C@H](Cc3ccccc3)NC(=O)[C@H](C)NC(=O)[C@H](C)NC(=O)[C@H](CC(=O)O)NC(=O)[C@H](CC(=O)O)NC1=O)NC(=O)[C@H](C)NC(=O)[C@H](CC(=O)O)NC2=O (stereo partly drawn) [I-53, Ac-PL3-Asp-Ala-B5-Asp-Asp-Ala-Ala-Phe-Val-SeN-Phe-Trp-Gln-NH2] | 1.14 µM | 1.307 | 
CC(=O)N[C@@H](Cc1ccccc1)C(=O)N[C@@H](CC(=O)O)C(=O)N[C@@H](C)C(=O)N[C@]1(C)CCCCCCC=CCOC(=O)N2CC[C@@](C(=O)N[C@@H](CC3CCCCC3)C(=O)N[C@@H](Cc3c[nH]c4ccccc34)C(=O)N[C@@H](CCC(N)=O)C(N)=O)(C2)NC(=O)[C@H](C(C)C)NC(=O)[C@H](Cc2ccccc2)NC(=O)[C@H](C)NC(=O)[C@H](C)NC(=O)[C@H](CC(=O)O)NC(=O)[C@H](CC(=O)O)NC1=O [I-61, Ac-Phe-Asp-Ala-R8-Asp-Asp-Ala-Ala-Phe-Val-PyrS-Cha-Trp-Gln-NH2] | 8.9 µM | 1.446 | 
CC[C@H](C)[C@H](NC(=O)[C@H](CC(=O)O)NC(=O)[C@H](C)NC(C)=O)C(=O)N[C@]1(C)CCN(C)C(=O)OCC=CCCCCC[C@@](C)(C(=O)N[C@@H](Cc2ccccc2)C(=O)N[C@@H](Cc2c[nH]c3ccccc23)C(=O)N[C@@H](Cc2c[nH]cn2)C(N)=O)NC(=O)[C@H](CCC(N)=O)NC(=O)[C@H](Cc2ccccc2)NC(=O)[C@H](C)NC(=O)[C@H](C)NC(=O)[C@H](CC(=O)O)NC(=O)[C@H](CC(=O)O)NC1=O [I-65, Ac-Ala-Asp-Ile-RdN-Asp-Asp-Ala-Ala-Phe-Gln-S7-Phe-Trp-His-NH2] | 2.08 µM | 1.274 | 
CCCC[C@@H]1NC(=O)[C@H](CC(=O)O)NC(=O)[C@](C)(NC(=O)[C@@H](NC(=O)[C@H](CC(=O)O)NC(=O)[C@H](C)NC(C)=O)[C@@H](C)CC)CCN(C)C(=O)OCC=CCCCCC[C@@](C)(C(=O)N[C@@H](Cc2ccccc2)C(=O)N[C@@H](Cc2c[nH]c3ccccc23)C(=O)N[C@@H](Cc2c[nH]cn2)C(N)=O)NC(=O)[C@H](CCC(N)=O)NC(=O)[C@H](Cc2ccccc2)NC(=O)[C@H](C)NC(=O)[C@H](C)NC1=O [I-69, Ac-Ala-Asp-Ile-RdN-Asp-nLeu-Ala-Ala-Phe-Gln-S7-Phe-Trp-His-NH2] | 9.1 µM | 1.593 | 
CC(=O)N[C@@H](Cc1ccccc1)C(=O)N[C@@H](CC(=O)O)C(=O)N[C@@H](C)C(=O)N[C@]1(C)CCCCCCC=CCOC(=O)N2CC[C@@](C(=O)N[C@@H](Cc3ccccc3)C(=O)N[C@@H](Cc3c[nH]c4ccccc34)C(=O)N[C@@H](CCC(N)=O)C(N)=O)(C2)NC(=O)[C@H](C(C)C)NC(=O)[C@H](Cc2ccc(F)c(F)c2)NC(=O)[C@H](C)NC(=O)[C@H](C)NC(=O)[C@H](CC(=O)O)NC(=O)[C@H](CC(=O)O)NC1=O [I-79, Ac-Phe-Asp-Ala-R8-Asp-Asp-Ala-Ala-34FF-Val-PyrS-Phe-Trp-Gln-NH2] | 3.97 µM |  | 1.27
CC(=O)N[C@@H](Cc1ccccc1)C(=O)N[C@@H](CC(=O)O)C(=O)N[C@@H](C)C(=O)N[C@]1(C)CCCCCCC=CCOC(=O)N2CC[C@@](C(=O)N[C@@H](Cc3ccccn3)C(=O)N[C@@H](Cc3c[nH]c4ccccc34)C(=O)N[C@@H](CCC(N)=O)C(N)=O)(C2)NC(=O)[C@H](C(C)C)NC(=O)[C@H](Cc2ccccc2)NC(=O)[C@H](C)NC(=O)[C@H](C)NC(=O)[C@H](CC(=O)O)NC(=O)[C@H](CC(=O)O)NC1=O [I-81, Ac-Phe-Asp-Ala-R8-Asp-Asp-Ala-Ala-Phe-Val-PyrS-2PyrA-Trp-Gln-NH2] | 9.77 µM | 1.063 | 
COc1ccc(C[C@@H]2NC(=O)[C@H](C)NC(=O)[C@H](C)NC(=O)[C@H](CCC(=O)O)NC(=O)[C@H](CC(=O)O)NC(=O)C3(CCCC=CCCCCCC[C@@](C)(C(=O)N[C@@H](Cc4ccccc4)C(=O)N[C@@H](Cc4c[nH]c5ccccc45)C(=O)N[C@@H](CCC(N)=O)C(N)=O)NC(=O)[C@H](C(C)C)NC2=O)CCCC=CC[C@]2(CCCN2C(C)=O)C(=O)N[C@@H](CC(=O)O)C(=O)N[C@@H](C)C(=O)N3)cc1 (stereo partly drawn) [I-218, Ac-PL3-Asp-Ala-B5-Asp-Glu-Ala-Ala-MeTyr-Val-S8-Phe-Trp-Gln-NH2] | 0.09 µM |  | 
